The text below walks through data of patent US20100087658A1, “METHODS AND INTERMEDIATES FOR SYNTHESIS OF SELECTIVE DPP-IV INHIBITORS” (Phenomix Corporation, priority 1996, published 2010).

For this series the following is noted: crystalline form as isolated.

Take `O=C([O-])CN(C(=O)OCc1ccccc1)C1CCN(C(=O)OCc2ccccc2)C1.[Na+]` (stereo not shown) [II-Cbz-Na, sodium salt of (1-carbobenzyloxypyrrolidin-3-yl)-N-carbobenzyloxyglycine]: the water solubility result is “highly water-soluble”.
